Measurements published in patent US8080529B2, “Macrolides with anti-inflammatory activity” (Glaxo Group Limited, priority 2005, dated 2011).

Columns and labels:
Assay type in all cases: in vivo
TNF-α [1] = test: Lipopolysaccharide induced TNF-α production in Balb/cJ mice; details: Mus musculus, ip, 1.5 h; 10 mg/kg intraperitoneally, 30 min before LPS; 90 min after LPS; read-out: % inhibition of TNF-α production (plasma)
Procedure: Male Balb/cJ mice (Iffa Credo, France) weighing 25-33 g were randomly grouped (n=7 in test group, 7 in positive control group, 4 in negative control group). Test compounds, as well as vehicle [0.125% carboxymethyl-cellulose (Sigma, USA)], were administered to the mice intraperitoneally. Test compounds were administered at a dose of 10 mg/kg of body weight, in a volume of 10 mL/kg of body weight. Thirty minutes later, a sterile solution of lipopolysaccharide (LPS) (Sigma, USA) in saline was intraperitoneally administered at a concentration and volume of 25 μg/0.2 mL/mouse to each animal, except those in negative control. Ninety minutes following administration, all animals were sacrificed by puncturing a. carotis communis. The plasma concentration of TNF-α was determined by sandwich ELISA, using capture and detection antibodies (R&D, USA) according to manufacturer's recommendations. Results are presented in the following table as percent of inhibition of TNF-α production in comparison to the positive control (stimulated, but untreated animals).

neutrophils = test: Lung neutrophilia induced by bacterial lipopolysaccharide in male BALB/cJ mice: cells in BALF and lung tissue; details: 2.5 mg i.p.; 24 hours after LPS
Procedure: (§1) Male BALB/cJ mice (Iffa Credo, France), with average weight 30 g were randomly grouped (n=7 in testing group, 8 in positive control, 7 in negative control). Mice were administered intraperitoneally (i.p.) a single dose of 5 or 2.5 mg of test compound. Two hours after administration, 2 μg of bacterial lipopolysaccharide (LPS), dissolved in PBS in a volume of 60 μL, was intranasally administered to all experimental groups except the negative control group, which received the same volume (60 μL) of vehicle PBS. Animals were sacrificed approximately 24 hours after application of LPS in order to obtain bronchoalveolar lavage fluid (BALF), which was used to determine concentrations of IL-6 and TNF-α, absolute number of cells, and the percentage of neutrophils in BALF. Results are expressed as percentage of decrease of total cell number, relative number of neutrophils, and TNF-α, and IL-6 concentration in BALF of treated animals compared to positive control (LPS stimulated, but untreated animals).
(§2) Results are expressed as percentage of decrease of total cell number, relative number of neutrophils, and TNF-alpha and IL-6 concentration in BALF of treated animals compared to positive control (LPS stimulated, but untreated animals).
Besides accumulation of inflammatory cells in BALF, the extent and anatomic site of pulmonary inflammation induced by LPS was assessed 24 hours after PBS or LPS exposure. Accumulation of granulocytes and mononuclear cells in peribronchial (PB) and perivascular (PV) lung tissue areas and in alveolar spaces was monitored following sacrifice of the animals.

TNF-α [2] = test: Lung neutrophilia induced by bacterial lipopolysaccharide in male BALB/cJ mice: TNF-α in BALF; details: 2.5 mg i.p.; 24 hours after LPS
Procedure: as §1, §2

IL-6 = test: Lung neutrophilia induced by bacterial lipopolysaccharide in male BALB/cJ mice: IL-6 in BALF; details: 2.5 mg i.p.; 24 hours after LPS
Procedure: as §1, §2

SMILES: CC[C@H]1OC(=O)[C@H](C)[C@@H](O[C@H]2C[C@@](C)(OC)C(OC(=O)CCN(CC)CC)[C@H](C)O2)[C@H](C)[C@@H](O[C@@H]2O[C@H](C)C[C@H](N(C)C(C)=O)[C@H]2O)[C@](C)(OC)C[C@@H](C)C(=O)N[C@H](C)[C@@H](O)[C@]1(C)O (some centres unmarked) [Example 62, 3′-N-methyl-3′-N-acetyl-4″-O-(3-diethylaminopropionyl)-6-O-methyl-9a-aza-9a-homoerythromycin A]
- inhibition in vivo at 10 mg/kg (TNF-α [1]): 59%
- % decrease of neutrophils in BALF (neutrophils): 13%
- % decrease of total cell no. in BALF (neutrophils): 47%
- Percentage of decrease of TNF-α concentration in BALF (TNF-α [2]): 62%
- Percentage of decrease of IL-6 concentration in BALF (IL-6): 22%
